Source: patent US20230233576A1, “ECLITASERTIB FOR USE IN TREATING CONDITIONS INVOLVING SYSTEMIC HYPERINFLAMMATORY RESPONSE” (priority 2020, published 2023)

System: laboratory markers of severe COVID-19 (D-dimer, leukocytes, lymphocytes, neutrophil to lymphocyte ratio, ferritin, LDH)
Test: Phase 1b severe COVID-19 study: laboratory markers of severe COVID-19
Format: in vivo, human
Settings: for D-Dimer relative change from baseline, RIPK1 Inhibitor vs placebo, point estimate / Ferritin relative change from baseline, RIPK1 Inhibitor vs placebo, point estimate / Lactate Dehydrogenase relative change from baseline, RIPK1 Inhibitor vs placebo, point estimate / Leukocytes relative change from baseline, RIPK1 Inhibitor vs placebo, point estimate / Lymphocytes relative change from baseline, RIPK1 Inhibitor vs placebo, point estimate / Neutrophils/Lymphocytes (RATIO) relative change from baseline, RIPK1 Inhibitor vs placebo, point estimate: MMRM; for D-Dimer relative change from baseline, RIPK1 Inhibitor vs placebo, point estimate / Ferritin relative change from baseline, RIPK1 Inhibitor vs placebo, point estimate / Lactate Dehydrogenase relative change from baseline, RIPK1 Inhibitor vs placebo, point estimate / Leukocytes relative change from baseline, RIPK1 Inhibitor vs placebo, point estimate / Lymphocytes relative change from baseline, RIPK1 Inhibitor vs placebo, point estimate / Neutrophils/Lymphocytes (RATIO) relative change from baseline, RIPK1 Inhibitor vs placebo, point estimate / D-Dimer: point estimate of the relative change from baseline (geometric mean) / D-Dimer: point estimate of the relative change from baseline displayed as percent change / Ferritin: point estimate of the relative change from baseline (geometric mean) / Ferritin: point estimate of the relative change from baseline displayed as percent change / Lactate Dehydrogenase: point estimate of the relative change from baseline (geometric mean) / Lactate Dehydrogenase: point estimate of the relative change from baseline displayed as percent change / Leukocytes: point estimate of the relative change from baseline (geometric mean) / Leukocytes: point estimate of the relative change from baseline displayed as percent change / Lymphocytes: point estimate of the relative change from baseline (geometric mean) / Lymphocytes: point estimate of the relative change from baseline displayed as percent change / Neutrophils/Lymphocytes (RATIO): point estimate of the relative change from baseline (geometric mean) / Neutrophils/Lymphocytes (RATIO): point estimate of the relative change from baseline displayed as percent change: LOCF, Efficacy population
Text: For clinical assessment, the variables associated with endpoints were: • main inflammatory marker CRP • Oxygenation saturation and oxygen delivery (e.g. SpO2, SpO2/FiO2), Laboratory markers of severe COVID-19 including D-dimer, lactate dehydrogenase (LDH), ferritin and hematology laboratory (white blood cell count, differential blood lymphocytes, neutrophil to lymphocyte ratio) • Clinical status of participant (7-point ordinal scale) • Thrombolytic and vasopressor treatments
Other secondary clinical assessment endpoints included: • Number of Days without need for oxygen support and alive (oxygen saturation≥92% breathing room air) up to Day 28 • Numbers of Ventilator-free days and alive up to Day 28 • Change from baseline in markers of inflammation (White blood cell count, differential blood lymphocytes, neutrophil to lymphocyte ratio, IL-6) and D-Dimer at Day 7 and EOT • Incidence of Deaths up to Day 28 • Percentage of participants receiving thrombolytic treatment up to Day 28 • Percentage of participants receiving vasopressor treatment up to Day 28 • Numbers of Respiratory Failure-Free Days (RFFD) and alive up to Day 28
Exploratory clinical assessments endpoints included: • Change from baseline in ferritin and LDH at Day 7 and EOT • Proportion of participants per category of the 7-point clinical scale at EOT • Time to improvement by 2 points in category of 7-point clinical scale • Quantitative SARS-COV-2 viral load in blood at baseline and on Day 3, 5, 7 and EOT
The relative changes from baseline in laboratory markers of severe COVID-19 were analyzed for the two treatment groups and for the treatment comparison of RIPK1 Inhibitor versus placebo, at Day 7 and EOT (Table 22, Table 23, Table 24). See also FIGS. 14, 15, 16, 17, 18, and 19.

CN1C(=O)[C@@H](NC(=O)c2nnc(Cc3ccccc3)[nH]2)COc2cccnc21 [RIPK1 Inhibitor, (S)-5-benzyl-N-(5-methyl-4-oxo-2,3,4,5-tetrahydropyrido[3,2-b][1,4]oxazepin-3-yl)-4H-1,2,4-triazole-3-carboxamide]
D-Dimer relative change from baseline, RIPK1 Inhibitor vs placebo, point estimate (600 mg, Day 7): 0.88
Ferritin relative change from baseline, RIPK1 Inhibitor vs placebo, point estimate (600 mg, Day 7): 0.96
Lactate Dehydrogenase relative change from baseline, RIPK1 Inhibitor vs placebo, point estimate (600 mg, Day 7): 0.80
Leukocytes relative change from baseline, RIPK1 Inhibitor vs placebo, point estimate (600 mg, Day 7): 0.87
Lymphocytes relative change from baseline, RIPK1 Inhibitor vs placebo, point estimate (600 mg, Day 7): 1.02
Neutrophils/Lymphocytes (RATIO) relative change from baseline, RIPK1 Inhibitor vs placebo, point estimate (600 mg, Day 7): 0.65
difference with RIPK1 Inhibitor versus placebo for ferritin (600 mg, Day 7 and EOT): No differences
D-Dimer relative change from baseline, RIPK1 Inhibitor vs placebo, point estimate (600 mg, EOT): 1.07
Ferritin relative change from baseline, RIPK1 Inhibitor vs placebo, point estimate (600 mg, EOT): 0.98
Lactate Dehydrogenase relative change from baseline, RIPK1 Inhibitor vs placebo, point estimate (600 mg, EOT): 0.85
Leukocytes relative change from baseline, RIPK1 Inhibitor vs placebo, point estimate (600 mg, EOT): 1.03
Lymphocytes relative change from baseline, RIPK1 Inhibitor vs placebo, point estimate (600 mg, EOT): 1.03
Neutrophils/Lymphocytes (RATIO) relative change from baseline, RIPK1 Inhibitor vs placebo, point estimate (600 mg, EOT): 0.67
D-Dimer: point estimate of the relative change from baseline (geometric mean) (Day 03): 1.00
D-Dimer: point estimate of the relative change from baseline displayed as percent change (Day 03): −0.31%
Ferritin: point estimate of the relative change from baseline (geometric mean) (Day 03): 3.43
Ferritin: point estimate of the relative change from baseline displayed as percent change (Day 03): 242.68%
Lactate Dehydrogenase: point estimate of the relative change from baseline (geometric mean) (Day 03): 2.42
Lactate Dehydrogenase: point estimate of the relative change from baseline displayed as percent change (Day 03): 141.68%
Leukocytes: point estimate of the relative change from baseline (geometric mean) (Day 03): 6.10
Leukocytes: point estimate of the relative change from baseline displayed as percent change (Day 03): 509.93%
Lymphocytes: point estimate of the relative change from baseline (geometric mean) (Day 03): 1.35
Lymphocytes: point estimate of the relative change from baseline displayed as percent change (Day 03): 34.70%
Neutrophils/Lymphocytes (RATIO): point estimate of the relative change from baseline (geometric mean) (Day 03): 2.01
Neutrophils/Lymphocytes (RATIO): point estimate of the relative change from baseline displayed as percent change (Day 03): 100.80%
D-Dimer: point estimate of the relative change from baseline (geometric mean) (Day 05): 1.04
D-Dimer: point estimate of the relative change from baseline displayed as percent change (Day 05): 4.10%
Ferritin: point estimate of the relative change from baseline (geometric mean) (Day 05): 2.91
Ferritin: point estimate of the relative change from baseline displayed as percent change (Day 05): 191.34%
Lactate Dehydrogenase: point estimate of the relative change from baseline (geometric mean) (Day 05): 2.23
Lactate Dehydrogenase: point estimate of the relative change from baseline displayed as percent change (Day 05): 122.59%
Leukocytes: point estimate of the relative change from baseline (geometric mean) (Day 05): 6.14
Leukocytes: point estimate of the relative change from baseline displayed as percent change (Day 05): 513.77%
Lymphocytes: point estimate of the relative change from baseline (geometric mean) (Day 05): 1.43
Lymphocytes: point estimate of the relative change from baseline displayed as percent change (Day 05): 42.51%
Neutrophils/Lymphocytes (RATIO): point estimate of the relative change from baseline (geometric mean) (Day 05): 1.89
Neutrophils/Lymphocytes (RATIO): point estimate of the relative change from baseline displayed as percent change (Day 05): 89.49%
D-Dimer: point estimate of the relative change from baseline (geometric mean) (Day 07): 0.96
D-Dimer: point estimate of the relative change from baseline displayed as percent change (Day 07): −3.52%
Ferritin: point estimate of the relative change from baseline (geometric mean) (Day 07): 2.80
Ferritin: point estimate of the relative change from baseline displayed as percent change (Day 07): 179.61%
Lactate Dehydrogenase: point estimate of the relative change from baseline (geometric mean) (Day 07): 2.10
Lactate Dehydrogenase: point estimate of the relative change from baseline displayed as percent change (Day 07): 110.26%
Leukocytes: point estimate of the relative change from baseline (geometric mean) (Day 07): 6.15
Leukocytes: point estimate of the relative change from baseline displayed as percent change (Day 07): 514.60%
Lymphocytes: point estimate of the relative change from baseline (geometric mean) (Day 07): 1.52
Lymphocytes: point estimate of the relative change from baseline displayed as percent change (Day 07): 51.69%
Neutrophils/Lymphocytes (RATIO): point estimate of the relative change from baseline (geometric mean) (Day 07): 1.74
Neutrophils/Lymphocytes (RATIO): point estimate of the relative change from baseline displayed as percent change (Day 07): 74.47%
D-Dimer: point estimate of the relative change from baseline (geometric mean) (Day 15): 0.96
D-Dimer: point estimate of the relative change from baseline displayed as percent change (Day 15): −3.71%
Ferritin: point estimate of the relative change from baseline (geometric mean) (Day 15): 2.66
Ferritin: point estimate of the relative change from baseline displayed as percent change (Day 15): 166.34%
Lactate Dehydrogenase: point estimate of the relative change from baseline (geometric mean) (Day 15): 2.05
Lactate Dehydrogenase: point estimate of the relative change from baseline displayed as percent change (Day 15): 104.58%
Leukocytes: point estimate of the relative change from baseline (geometric mean) (Day 15): 6.60
Leukocytes: point estimate of the relative change from baseline displayed as percent change (Day 15): 560.21%
Lymphocytes: point estimate of the relative change from baseline (geometric mean) (Day 15): 1.63
Lymphocytes: point estimate of the relative change from baseline displayed as percent change (Day 15): 63.48%
Neutrophils/Lymphocytes (RATIO): point estimate of the relative change from baseline (geometric mean) (Day 15): 1.66
Neutrophils/Lymphocytes (RATIO): point estimate of the relative change from baseline displayed as percent change (Day 15): 65.55%
